Laboratory results as given in patent EP2970215B1, “PYRROLIDINE DERIVATIVES, PHARMACEUTICAL COMPOSITIONS CONTAINING THEM, AND THEIR USE IN THERAPY” (AbbVie Deutschland GmbH & Co. KG, priority 2013, dated 2014).

What follows are compounds tested against T1, human GlyT1c transporter (Homo sapiens, UniProt P48067) (assay: Radioligand binding assay using recombinant CHO cell membranes expressing human GlyT1). Details: radioligand binding to human GlyT1c transporter-expressing membranes.
T1 construct: expressed in transfected cells; host or cells: CHO cells (recombinant; line hGlyT1c_5_CHO is named for the uptake assay)
T1 sequence (P48067 1-706): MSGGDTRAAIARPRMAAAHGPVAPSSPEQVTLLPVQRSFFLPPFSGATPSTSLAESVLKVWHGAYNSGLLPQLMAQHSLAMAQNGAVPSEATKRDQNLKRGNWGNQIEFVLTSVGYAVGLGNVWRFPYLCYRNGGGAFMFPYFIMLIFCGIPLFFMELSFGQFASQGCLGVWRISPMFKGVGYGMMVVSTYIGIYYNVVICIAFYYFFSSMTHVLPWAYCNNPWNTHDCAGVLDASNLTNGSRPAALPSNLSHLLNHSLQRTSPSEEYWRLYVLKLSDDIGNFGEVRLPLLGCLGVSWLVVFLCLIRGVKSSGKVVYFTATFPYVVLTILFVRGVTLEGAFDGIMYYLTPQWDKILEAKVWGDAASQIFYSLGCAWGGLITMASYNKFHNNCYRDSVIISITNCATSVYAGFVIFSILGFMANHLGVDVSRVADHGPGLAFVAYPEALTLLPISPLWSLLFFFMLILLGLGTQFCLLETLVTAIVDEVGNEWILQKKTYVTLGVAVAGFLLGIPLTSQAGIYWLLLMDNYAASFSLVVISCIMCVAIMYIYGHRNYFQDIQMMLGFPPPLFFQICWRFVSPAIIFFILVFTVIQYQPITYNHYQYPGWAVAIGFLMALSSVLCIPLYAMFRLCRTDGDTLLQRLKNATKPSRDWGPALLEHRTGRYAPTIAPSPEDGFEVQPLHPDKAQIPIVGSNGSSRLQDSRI
Text: 2. Radioligand binding assays using recombinant CHO cell membranes expressing human GlyT1: […]

SMILES	Ki
Cn1cnc(S(=O)(=O)N2C[C@@H](Nc3ccc(F)c(F)c3)[C@H](c3ncco3)C2)c1 (relative stereo) [Example 709, Trans-N-[3,4-difluorophenyl]-1-[(1-methyl-1H-imidazol-4-yl)sulfonyl]-4-(1,3-oxazol-2-yl)pyrrolidin-3-amine]	≤ 10000 nM
Cn1cnc(S(=O)(=O)N2C[C@@H](OCc3cccc(S(C)(=O)=O)c3)[C@H](c3ccc(F)cc3)C2)c1 (relative stereo) [Example 714, 4-{[trans-3-(4-fluorophenyl)-4-{[3-(methylsulfonyl)benzyl]oxy}pyrrolidin-1-yl]sulfonyl}-1-methyl-1H-imidazole]	≤ 10000 nM
CCCCCCN(CCCCCC)[C@@H]1CN(S(=O)(=O)c2cn(C)cn2)C[C@H]1c1ncccc1F (relative stereo) [Example 763, Trans-4-(3-fluoropyridin-2-yl)-N,N-dihexyl-1-[(1-methyl-1H-imidazol-4-yl)sulfonyl]pyrrolidin-3-amine]	≤ 1000 nM
CCCCCN[C@@H]1CN(S(=O)(=O)c2cn(C)cn2)C[C@H]1c1ncccc1F (relative stereo) [Example 765, Trans-4-(3-fluoropyridin-2-yl)-1-[(1-methyl-1H-imidazol-4-yl)sulfonyl]-N-pentylpyrrolidin-3-amine]	≤ 1000 nM
Cn1cnc(S(=O)(=O)N2C[C@@H](Nc3cc(C(F)(F)F)ncn3)[C@H](c3ncccc3F)C2)c1 (relative stereo) [Example 770, N-{Trans-4-(3-fluoropyridin-2-yl)-1-[(1-methyl-1H-imidazol-4-yl)sulfonyl]pyrrolidin-3-yl}-6-(trifluoromethyl)pyrimidin-4-amine]	≤ 1000 nM
Cn1cnc(S(=O)(=O)N2C[C@@H](Nc3ccc(F)c(Cl)c3)[C@H](c3ncccc3F)C2)c1 (relative stereo) [Example 771, Trans-N-(3-chloro-4-fluorophenyl)-4-(3-fluoropyridin-2-yl)-1-[(1-methyl-1H-imidazol-4-yl)sulfonyl]pyrrolidin-3-amine]	≤ 100 nM
Cc1cc(N[C@@H]2CN(S(=O)(=O)c3cn(C)cn3)C[C@H]2c2ncccc2F)ccc1F (relative stereo) [Example 775, Trans-N-(4-fluoro-3-methylphenyl)-4-(3-fluoropyridin-2-yl)-1-[(1-methyl-1H-imidazol-4-yl)sulfonyl]pyrrolidin-3-amine]	≤ 1000 nM
Cc1cccc(N[C@@H]2CN(S(=O)(=O)c3cn(C)cn3)C[C@H]2C2CCCOC2)c1 (relative stereo) [Example 781, trans-1-[(1-methyl-1H-imidazol-4-yl)sulfonyl]-N-(3-methylphenyl)-4-(tetrahydro-2H-pyran-3-yl)pyrrolidin-3-amine]	≤ 10000 nM
Cn1cnc(S(=O)(=O)N2C[C@@H](Nc3cccc(Cl)c3)[C@H](C3CCCOC3)C2)c1 (relative stereo) [Example 783, trans -N-(3-chlorophenyl)-1-[(1-methyl-1H-imidazol-4-yl)sulfonyl] -4-(tetrahydro-2H-pyran-3 - yl)pyrrolidin-3-amine]	≤ 1000 nM
Cn1cnc(S(=O)(=O)N2C[C@@H]([C@@H]3CCCOC3)[C@H](Nc3ccc(Cl)c(C(F)(F)F)c3)C2)c1 (relative stereo) [Example 792, Trans-N-[4-chloro-3-(trifluoromethyl)phenyl]-1-[(1-methyl-1H-imidazol-4-yl)sulfonyl]-4-[(3S)-tetrahydro-2H-pyran-3-yl]pyrrolidin-3-amine]	≤ 10000 nM
Cn1cnc(S(=O)(=O)N2C[C@@H](Nc3cccc(F)c3)[C@H](c3ncccc3F)C2)c1 (relative stereo) [Example 805, Trans-N-(3-fluorophenyl)-4-(3-fluoropyridin-2-yl)-1-[(1-methyl-1H-imidazol-4-yl)sulfonyl]pyrrolidin-3-amine]	≤ 1000 nM

Results, then the compound that gave them:

Ki	SMILES
≤ 1000 nM	CCCNC(=O)CO[C@@H]1CN(S(=O)(=O)c2cn(C)cn2)C[C@H]1c1ccc(F)cc1 (relative stereo) [Example 689, 2-({Trans-4-(4-fluorophenyl)-1-[(1-methyl-1H-imidazol-4-yl)sulfonyl]pyrrolidin-3-yl}oxy)-N-propylacetamide]
≤ 1000 nM	Cn1cnc(S(=O)(=O)N2C[C@@H](OCc3cccc(F)c3)[C@H](c3ccc(F)cc3)C2)c1 (relative stereo) [Example 712, 4-{[trans-3-[(3-fluorobenzyl)oxy]-4-(4-fluorophenyl)pyrrolidin-1-yl]sulfonyl}-1-methyl-1H-imidazole]
> 10000 nM	Cn1cnc(S(=O)(=O)N2C[C@@H](OCc3ccc(S(C)(=O)=O)cc3)[C@H](c3ccc(F)cc3)C2)c1 (relative stereo) [Example 713, 4-{[trans-3-(4-fluorophenyl)-4-{[4-(methylsulfonyl)benzyl]oxy}pyrrolidin-1-yl]sulfonyl}-1-methyl-1H-imidazole]
≤ 100 nM	CCCCCCN[C@@H]1CN(S(=O)(=O)c2cn(C)cn2)C[C@H]1c1ncccc1F (relative stereo) [Example 762, Trans-4-(3-fluoropyridin-2-yl)-N-hexyl-1-[(1-methyl-1H-imidazol-4-yl)sulfonyl]pyrrolidin-3-amine]
≤ 1000 nM	CCCCCN(CCCCC)[C@@H]1CN(S(=O)(=O)c2cn(C)cn2)C[C@H]1c1ncccc1F (relative stereo) [Example 764, Trans-4-(3-fluoropyridin-2-yl)-1-[(1-methyl-1H-imidazol-4-yl)sulfonyl]-N,N-dipentylpyrrolidin-3-amine]
≤ 100 nM	Cn1cnc(S(=O)(=O)N2C[C@@H](Nc3ccc(F)c(C(F)(F)F)c3)[C@H](c3ncccc3F)C2)c1 (relative stereo) [Example 767, Trans-4-(3-fluoropyridin-2-yl)-N-[4-fluoro-3-(trifluoromethyl)phenyl]-1-[(1-methyl-1H-imidazol-4-yl)sulfonyl]pyrrolidin-3-amine]
≤ 100 nM	Cn1cnc(S(=O)(=O)N2C[C@@H](Nc3ccc(F)c(OC(F)(F)F)c3)[C@H](c3ncccc3F)C2)c1 (relative stereo) [Example 768, Trans-4-(3-fluoropyridin-2-yl)-N-[4-fluoro-3-(trifluoromethoxy)phenyl]-1-[(1-methyl-1H-imidazol-4-yl)sulfonyl]pyrrolidin-3-amine]
≤ 1000 nM	Cc1cc(N[C@@H]2CN(S(=O)(=O)c3cn(C)cn3)C[C@H]2c2ncccc2F)ncc1F (relative stereo) [Example 769, 5-fluoro-N-{trans-4-(3-fluoropyridin-2-yl)-1-[(1-methyl-1H-imidazol-4-yl)sulfonyl]pyrrolidin-3-yl}-4-methylpyridin-2-amine]
≤ 10000 nM	Cn1cnc(S(=O)(=O)N2C[C@@H](Nc3cc(Cl)ncn3)[C@H](c3ncccc3F)C2)c1 (relative stereo) [Example 772, 6-chloro-N-{trans-4-(3-fluoropyridin-2-yl)-1-[(1-methyl-1H-imidazol-4-yl)sulfonyl]pyrrolidin-3-yl}pyrimidin-4-amine]
≤ 1000 nM	Cn1cnc(S(=O)(=O)N2C[C@@H](Nc3cccc(C(F)(F)F)c3)[C@H](C3CCCOC3)C2)c1 (relative stereo) [Example 782, trans-1-[(1-methyl-1H-imidazol-4-yl)sulfonyl]-4-(tetrahydro-2H-pyran-3-yl)-N-[3-(trifluoromethyl)phenyl]pyrrolidin-3-amine]
≤ 10000 nM	Cn1cnc(S(=O)(=O)N2C[C@@H]([C@@H]3CCCOC3)[C@H](Nc3ccc(Cl)c(OC(F)(F)F)c3)C2)c1 (relative stereo) [Example 793, Trans-N-[4-chloro-3-(trifluoromethoxy)phenyl]-1-[(1-methyl-1H-imidazol-4-yl)sulfonyl]-4-[(3S)-tetrahydro-2H-pyran-3-yl]pyrrolidin-3-amine]
≤ 100 nM	Cn1cnc(S(=O)(=O)N2C[C@@H](Nc3cccc(C(F)(F)F)c3)[C@H](c3ncccc3F)C2)c1 (relative stereo) [Example 798, Trans-4-(3-fluoropyridin-2-yl)-1-[(1-methyl-1H-imidazol-4-yl)sulfonyl]-N-[3-(trifluoromethyl)phenyl]pyrrolidin-3-amine]
≤ 100 nM	Cn1cnc(S(=O)(=O)N2C[C@@H](Nc3cccc(OC(F)(F)F)c3)[C@H](c3ncccc3F)C2)c1 (relative stereo) [Example 799, Trans-4-(3-fluoropyridin-2-yl)-1-[(1-methyl-1H-imidazol-4-yl)sulfonyl]-N-[3-(trifluoromethoxy)phenyl]pyrrolidin-3-amine]
≤ 10 nM	Cn1cnc(S(=O)(=O)N2C[C@@H](Nc3cccc(OCC(F)(F)F)c3)[C@H](c3ncccc3F)C2)c1 (relative stereo) [Example 800, Trans-4-(3-fluoropyridin-2-yl)-1-[(1-methyl-1H-imidazol-4-yl)sulfonyl]-N-[3-(2,2,2-trifluoroethoxy)phenyl]pyrrolidin-3-amine]
≤ 100 nM	CCCCCCN[C@@H]1CN(S(=O)(=O)c2cn(C)nn2)C[C@H]1c1ncccc1F (relative stereo) [Example 811, Trans-4-(3-fluoropyridin-2-yl)-N-hexyl-1-[(1-methyl-1H-1,2,3-triazol-4-yl)sulfonyl]pyrrolidin-3-amine]
